According to US8614236B2 (University of Washington, priority 2006, dated 2013):
Entries after “also recorded” stand apart in the source; their conditions may differ.

Key:
[1] = system: Beagle dogs; experiment: Dog study: arterial blood gases, ventilation and acid-base status in normoxia and hypoxia; type: in vivo; conditions: iv bolus + continuous infusion
Description: The dogs were kept under highly standardized conditions and received a standardized diet five days before the experiments. […] To permit spontaneous breathing through a low resistance circuit, a face mask was attached, which enclosed the dog's snout in a leak proof fashion. This custom made mask is equipped with a 2.5 cm ID connector to connect it to a ventilator set to CPAP mode (3 4 cmH20) (Servo900C; Siemens-Elema, Erlangen/Germany).
(§1) Six dogs were studied in five different protocols in randomized order:
5) Ethoxzolamide (Sigma-Aldrich, Steinheim/Germany) intravenously: Bolus ethoxzolamide (1 mg/kg), followed by a continuous infusion of 1 mg·kg^−1·h^−1.
The hemodynamic measurements (arterial blood pressure, heart rate, central venous pressure, pulmonary artery pressure, pulmonary capillary wedge pressure), minute ventilation, renal function data, time points for blood samples for blood gases, actual bicarbonate, base excess, plasma electrolytes and hormones, measurements of plasma and urinary values were according to former studies.
(§2) Values are given as means±SEM (n=6). For intra-group comparisons a general linear model of analysis of variance (GLM-ANOVA) for repeated measures was applied (NCSS97/PASS 2000, Saugus/MA, USA). Post-hoc testing of means was performed with Student's t-test. Level of significance for error of first order was adjusted according to Holm's procedure. Statistical significance was assumed at p<0.05.

[2] = system: PASMCs; experiment: Hypoxia-induced increase in [Ca2+]i in PASMCs (4% O2); type: cell-based, rat; conditions: 10-100 μM
Description: (§3) Intrapulmonary arteries (200-600 μm o.d.) were isolated from male Wistar rats (250-350 g) and cleaned of connective tissue. After the lumen was gently rubbed with a cotton swab to remove the endothelial cells, the arteries were allowed to recover for 30 minutes in cold (4° C.) HBSS containing (in mM): 130 NaCl, 5 KCl, 1.2 MgCl2, 1.5 CaCl2, 10 N-[2-hydroxyethyl]piperazine-N′-[2-ethanesulfonic acid] (HEPES) and 10 glucose, with pH adjusted to 7.2 with 5 M NaOH, followed by 20 minutes in reduced-Ca^2+ (20 μM CaCl2) HBSS at room temperature. […] Following digestion, single smooth muscle cells were dispersed by gentle trituration with a wide-bore transfer pipette in Ca^2+-free HBSS and the cell suspension was placed on 25 mm glass cover slips. PASMCs were transiently cultured in Ham's-F-12 media supplemented with 0.5% fetal bovine serum and 1% penicillin/streptomycin for 24-48 hrs. before study.
(§4) Acute hypoxia increases intracellular [Ca^2+] in pulmonary arterial smooth muscle by enhancing capacitative Ca^2+ entry. […] Ratiometric measurement of fluorescence from the dye was performed on a workstation (Intracellular Imaging Inc, Cincinnati, Ohio) consisting of a Nikon TSE 100 Ellipse inverted microscope with epi-fluorescence attachments. The light beam from a xenon arc lamp was filtered at 340 and 380 nm, and focused onto the PASMCS under examination via a 20× fluorescence objective (Super Fluor 20, Nikon). Light emitted from the cell at 510 nm was returned through the objective and detected by a cooled CCD imaging camera. An electronic shutter (Sutter Instruments) was used to minimize photobleaching of dye. Protocols were executed and data collected on-line with InCyte software (Intracellular Imaging Inc). [Ca^2+]i was estimated from in vitro calibration solutions.

[3] = system: Beagle dogs; experiment: Dog study: plasma hormones, electrolytes and renal function; type: in vivo; conditions: iv bolus + continuous infusion
Description: A total of 30 experiments were performed on six female Beagle dogs (body wt 14.3±0.3 kg). The dogs were kept under highly standardized conditions and received a standardized diet five days before the experiments. The preparation and catheterization of the conscious dog were performed according to former experiments as in Höhne C., et al., J Appl Physiol (2004), which is hereby incorporated by reference in its entirety. To permit spontaneous breathing through a low resistance circuit, a face mask was attached, which enclosed the dog's snout in a leak proof fashion. This custom made mask is equipped with a 2.5 cm ID connector to connect it to a ventilator set to CPAP mode (3 4 cmH20) (Servo900C; Siemens-Elema, Erlangen/Germany).
as §1
4) Benzolamide intravenously: Bolus (2 mg/kg), followed by a continuous infusion of 2 mg·kg^−1·h^−1, a dosage which inhibits only renal and vascular endothelial extracellular CA, without affecting red cell CA as in Travis D. M., et al. J Pharmacol Exp Ther (1964), which is hereby incorporated by reference in its entirety. 5) Ethoxzolamide (Sigma-Aldrich, Steinheim/Germany) intravenously: Bolus ethoxzolamide (1 mg/kg), followed by a continuous infusion of 1 mg·kg^−1·h^−1.
In control experiments, the dogs breathed room air (21% O2, 79% N2; normoxia) for one hour, followed by breathing a gas mixture containing 10% O2 and 90% N2 for two hours (hypoxia). The time course was the same for the CA inhibitor experiments, but F1O2 was reduced to 0.09 during the hypoxia period to match the arterial and alveolar PO2 of the control dogs, which otherwise would have been higher on 10% O2 as a result of the known ventilatory stimulant effect of all CA inhibitors. See Höhne C., et al., J Appl Physiol 97:515-521 (2004), which is hereby incorporated by reference in its entirety. The hemodynamic measurements (arterial blood pressure, heart rate, central venous pressure, pulmonary artery pressure, pulmonary capillary wedge pressure), minute ventilation, renal function data, time points for blood samples for blood gases, actual bicarbonate, base excess, plasma electrolytes and hormones, measurements of plasma and urinary values were according to former studies. See Höhne C., et al., J Appl Physiol 90:1842-1848 (2001), which is hereby incorporated by reference in its entirety.
as §2

[4] = system: PASMCs; experiment: Basal intracellular Ca2+ concentration in PASMCs (Fura-2); type: cell-based, rat; conditions: for basal [Ca^2+]i, Treatment: 100 μM, after 10 min of perfusion; for effect on resting [Ca^2+]i: 10-100 μM; for basal [Ca^2+]i, Baseline: before perfusion with the compound
Description: as §3, §4

Compound	BEa, arterial base excess ([1]; hypoxia 2nd h) [mM]	HCO3a, arterial actual bicarbonate concentration ([1]; hypoxia 2nd h) [mM]	PaCO2, arterial carbon dioxide tension ([1]; hypoxia 2nd h) [Torr]	PaO2, arterial oxygen tension ([1]; hypoxia 2nd h) [Torr]	VE, minute ventilation ([1]; hypoxia 2nd h) [L/min]	pHa, arterial pH ([1]; hypoxia 2nd h)	BEa, arterial base excess ([1]; hypoxia 3rd h) [mM]	HCO3a, arterial actual bicarbonate concentration ([1]; hypoxia 3rd h) [mM]	PaCO2, arterial carbon dioxide tension ([1]; hypoxia 3rd h) [Torr]	PaO2, arterial oxygen tension ([1]; hypoxia 3rd h) [Torr]	VE, minute ventilation ([1]; hypoxia 3rd h) [L/min]	pHa, arterial pH ([1]; hypoxia 3rd h)	BEa, arterial base excess ([1]; normoxia 1st h) [mM]	HCO3a, arterial actual bicarbonate concentration ([1]; normoxia 1st h) [mM]	PaCO2, arterial carbon dioxide tension ([1]; normoxia 1st h)	PaO2, arterial oxygen tension ([1]; normoxia 1st h)	VE, minute ventilation ([1]; normoxia 1st h) [L/min]	pHa, arterial pH ([1]; normoxia 1st h)	effect on hypoxia-induced increase in [Ca^2+]i [2]	plasma renin activity during hypoxia [3]	other results
CCOc1ccc2nc(S(N)(=O)=O)sc2c1 [EZ, ethoxzolamide]	-6.2 ± 1.2	18.1 ± 1.3	26 ± 1	36 ± 1	6.4 ± 0.7	7.41 ± 0.01	-6.7 ± 1.1	17.6 ± 1.3	24 ± 1	38 ± 1	6.9 ± 0.9	7.42 ± 0.01	-5.3 ± 0.5	19.6 ± 0.6	33 ± 1 Torr	105 ± 1 Torr	4.0 ± 0.2	7.37 ± 0.01	no effect	did not change	effect on hypoxia-induced increase in [Ca^2+]i ([2]; listed as EF): neither EF (FIG. 5) nor BZ (FIG. 6) had a significant effect; GFR, glomerular filtration rate ([3]; hypoxia 2nd h): 3.1 ± 0.2 mL/min/kg; PK, plasma potassium concentration ([3]; hypoxia 2nd h): 2.8 ± 0.1 mM; UV, urine volume ([3]; hypoxia 2nd h): 0.072 ± 0.022 mL/min/kg; GFR, glomerular filtration rate ([3]; hypoxia 3rd h): 3.2 ± 0.2 mL/min/kg; PK, plasma potassium concentration ([3]; hypoxia 3rd h): 2.7 ± 0.1 mM; UV, urine volume ([3]; hypoxia 3rd h): 0.045 ± 0.006 mL/min/kg; GFR, glomerular filtration rate ([3]; normoxia 1st h): 3.2 ± 0.2 mL/min/kg; PK, plasma potassium concentration ([3]; normoxia 1st h): 3.1 ± 0.1 mM; UV, urine volume ([3]; normoxia 1st h): 0.052 ± 0.009 mL/min/kg; basal [Ca^2+]i, Treatment [4]: 122.5 ± 6.3 nM; effect on resting [Ca^2+]i [4]: neither EZ nor BZ altered; basal [Ca^2+]i, Baseline [4]: 125.5 ± 7.1 nM
NS(=O)(=O)c1nnc(NS(=O)(=O)c2ccccc2)s1 [BZ, benzolamide]	-4.4 ± 0.4	18.4 ± 0.3	30 ± 1	37 ± 1	4.4 ± 0.5	7.41 ± 0.01	-4.9 ± 0.4	17.7 ± 0.4	29 ± 1	38 ± 1	5.1 ± 0.6	7.42 ± 0.01	-4.4 ± 0.4	20.1 ± 0.3	37 ± 1^ Torr	96 ± 1^ Torr	3.0 ± 0.2	7.35 ± 0.01	no effect; also recorded: neither EF (FIG. 5) nor BZ (FIG. 6) had a significant effect	did not change	GFR, glomerular filtration rate ([3]; hypoxia 2nd h): 3.0 ± 0.2 mL/min/kg; PK, plasma potassium concentration ([3]; hypoxia 2nd h): 2.9 ± 0.1 mM; UV, urine volume ([3]; hypoxia 2nd h): 0.104 ± 0.023 mL/min/kg; GFR, glomerular filtration rate ([3]; hypoxia 3rd h): 3.2 ± 0.2 mL/min/kg; PK, plasma potassium concentration ([3]; hypoxia 3rd h): 2.8 ± 0.1 mM; UV, urine volume ([3]; hypoxia 3rd h): 0.065 ± 0.015 mL/min/kg; GFR, glomerular filtration rate ([3]; normoxia 1st h): 2.9 ± 0.2 mL/min/kg; PK, plasma potassium concentration ([3]; normoxia 1st h): 3.0 ± 0.1 mM; UV, urine volume ([3]; normoxia 1st h): 0.066 ± 0.007 mL/min/kg; basal [Ca^2+]i, Treatment [4]: 120.7 ± 7.7 nM; effect on resting [Ca^2+]i [4]: neither EZ nor BZ altered; basal [Ca^2+]i, Baseline [4]: 113.4 ± 7.4 nM
